This is an account of results in patent EP4566614A1, “DRY EYE REMEDY CONTAINING DNA OLIGONUCLEOTIDE […] BINDING TO IFN-y” (TAGCyx Biotechnologies Inc., priority 2022, dated 2024).

In the data set the target is T1, IFN-y (Homo sapiens, UniProt P01579).
T1 sequence (P01579 24-166): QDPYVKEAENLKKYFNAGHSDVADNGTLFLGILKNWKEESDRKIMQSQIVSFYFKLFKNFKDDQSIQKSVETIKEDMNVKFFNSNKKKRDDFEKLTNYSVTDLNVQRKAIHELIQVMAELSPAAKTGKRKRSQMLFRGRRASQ
Put plainly: Binding of PEG-modified form to IFN-y by SPR (Surface Plasmon Resonance). The note with it: PEG (40000) on base X. From the text: With the base of X produced in Example 2, Aptamer 3 (1 eq) having a primary amine side chain and commercially available NHS-PEG (40000) (1.5 eq) were mixed in a phosphate buffer at pH 7 to 8 and the mixture was stirred for 1 day at room temperature. The reaction solution was concentrated and the resulting modified form was purified by reversed phase HPLC to obtain a PEG-modified form of Aptamer 3.
On the technique in general: Surface plasmon resonance follows binding to a sensor surface in real time, without labels.

As for “PEG-modified form of Aptamer 3: Aptamer 3 having a primary amine side chain at X reacted with NHS-PEG (40000) (CCCGCCCGGGTCCGCGAAGCGGTAGGTNTGGGCTAGGCNGCTGGCGGGCGCGNAGCG; DNA aptamer, amine side-chain residue X conjugated to 40 kDa PEG, further chemistry not given here)”, the “ability to bind to IFN-y” value is recorded as “retained its ability to bind to IFN-y”. Moreover, the “ability to bind to IFN-y” value (listed as PEG-modified form of a DNA aptamer having the sequence of SEQ ID NO: 3) is listed as “capable of binding to IFN-γ”.
